Reference: publication PMC13327620, “A Deep‐Red‐Absorbing Osmium(II) Complex as a Photosensitizer for Photodynamic Therapy Inducing Immunogenic Cell Death” (Angewandte Chemie (International Ed. in English), 2026)
Like-named read-outs stand apart in the source and are kept apart here.

Assays:
[1] = tested on: CT26 cells; assay: ICD in vitro, summary of the three hallmarks; format: cell-based, mouse
Experimental: A weak ICD was present in cells treated with 6.12 µM Os2 in the dark (limited translocation of CRT) and Ce6‐treated cells under 770 nm light (partial release of HMGB‐1).

[2] = tested on: CT26‐luc cells; assay: Annexin V-FITC/propidium iodide (AV/PI) cell viability assay by flow cytometry; format: cell-based, mouse; conditions: 740 nm LED light (60 min, 12.6 J cm^−2)
Experimental: Following the gold standard assessment method, the Annexin V‐FITC/propidium iodide (AV/PI) dual staining assay was conducted to screen the suitable concentrations of each drug (Figure S25). In addition, to better monitor tumor growth in vivo, luciferase‐labelled tumor cells (CT26‐luc) were used for in vivo experiments by bioluminescence imaging. […] As the concentration of each drug was increased, the proportion of live cells decreased, while the percentage of dying cells (Q3, Annexin V^+/PI^−) and dead cells (Q2, Annexin V^+/PI^+ and Q1, Annexin V^−/PI^+) increased. The concentrations at which approximately 5% of the cells remained alive (IC95) were 600 µM for Cisplatin in the dark, 1.8 µM for Os2, and 6.5 µM for Ce6 upon 740 nm LED light irradiation (60 min, 12.6 J cm^−2). These concentrations were selected for the subsequent in vivo vaccination studies. […]
incubated for 24 h. Cells were then treat ed with the determined IC50 of complexes and irradiated or kept in the dark. Supernatants were collected 12 h post-t reatm ent, and the extracellular ATP content was measured with Adenosine 5′ -triphosphate (ATP) Bioluminescent Assay Kit (Sigma-Aldrich) according tomanufacturer ’s ins truction. […]
556419) and PI (BD Biosciences, Catalog no.51- 66211E). CT26- luc cells were analyzed by flow cytometry (Beckm an Coulter Life Sciences, CytoFLEX LX Flow Cytometer). […]

[3] = tested on: mouse colon adenocarcinoma (CT26) cells; assay: Resazurin cell viability assay, (photo)cytotoxicity, normoxia; format: cell-based
Experimental: Given that most ICD studies focus on breast, non‐small cell lung carcinoma, and colon cancer, and since ICD was first discovered in mouse colon cancer cells (CT26), we initially tested our compounds on CT26 cells. Cells were incubated with nine different concentrations (mainly from 0.01 to 100 µM) of the compounds for 4 h in the dark. Then, the diluted solutions containing the compounds were replaced by fresh medium, and the cells were either illuminated or kept in the dark for 1 h more. After 2 days, IC50 values (concentration of the agent inhibiting cell growth by 50%) were determined with the resazurin assay, using chlorin e6 (Ce6) and protoporphyrin IX (PpIX) for comparison (Figure S10). The clinically approved chlorin mixture Radachlorin contains ∼80% Ce6, while 5‐aminolevulinic acid (Ameluz and Levulan) and methyl 5‐aminolevulinate (Metvix and Metvixia) serve as precursors of PpIX. Therefore, Ce6 and PpIX were used for comparison purposes.
(100 U ml−1), streptomycin (100 U ml−1), and 1% L-glutamine. […]
All cells were incubated at 37 °C in a humidified atmosphere with 5 % CO2.
Normoxia. The in vitro viability of cells exposed to the complexes was determined using a resazurin assay. C ells were seeded in 96-well plates at densities of 4,000 cells/well for CT26, MC A205 and U-87 MG cells, and 8,000 cells/well for MRC-5 and NIH/3T3 cells. A fter 24 h of growth at 37 °C wit h 5% CO2, the medium was replaced with fresh medium containing various concentrations of the compounds . Following a 4- h incubation in the dark, the medium was refres hed , and the plates were exposed to irradiation usinga LUM OS -BIO photoreactor (At las Photonics).N on- ir rad iated plates were similarly refr eshed with medium and kept in the dark for the same duration. After a 40- h r ecov ery period, a f reshly pr epar ed resazurin solution (0.2 mg/mL) was added to each well, and the plates were left in the dark for 4 h before analysis on a B i o Te k Cytation 5 Cell Imaging Multimode Reader (Agil ent Technologies). […]

Compound: C=Cc1c(C)c2cc3nc(c(CC(=O)O)c4[nH]c(cc5nc(cc1[nH]2)C(C)=C5CC)c(C)c4C(=O)O)[C@@H](CCC(=O)O)[C@@H]3C [Ce6, chlorin e6]
- ICD (all three hallmarks) ([1]; CT26, 770 nm light): weak ICD
- ICD (all three hallmarks) ([1]; CT26, illumination at 740 nm): strong ICD
- Concentration at which approximately 5% of the cells remained alive (IC95) [2]: 6.5 µM
- PI ([3]; CT26, 480 nm): >38
- PI ([3]; CT26, 510 nm): >70
- PI ([3]; CT26, 540 nm): >30
- PI ([3]; CT26, 595 nm): >20
- PI (phototoxicity index, IC50 dark/IC50 light) ([3]; CT26, 620 nm): >51
- PI ([3]; CT26, 645 nm): >25
- PI ([3]; CT26, 670 nm): >51
- PI ([3]; CT26, 740 nm): >19
- PI ([3]; CT26, 770 nm): >4
- IC50 ([3]; CT26, 770 nm, FWHM 12.5 nm, 15.30 J/cm^2): almost non‐phototoxic
- IC50 ([3]; Mus musculus, CT26, CT26, dark, normoxia, read-out: IC50 Dark): > 100 µM
- IC50 ([3]; Mus musculus, CT26, light or radiation study, 1 h, CT26, 620 nm, 1.88 mW/cm^2, 60 min, normoxia, read-out: IC50 620 nm (1 h, 6.75 J/cm^2)): 1.98 ± 0.11 µM
- IC50 ([3]; Mus musculus, CT26, light or radiation study, CT26, 480 nm, FWHM 10 nm, 3.38 J/cm^2, read-out: IC50): 2.64 ± 0.42 µM
- IC50 ([3]; Mus musculus, CT26, light or radiation study, CT26, 510 nm, FWHM 15 nm, 2.44 J/cm^2, read-out: IC50): 1.43 ± 0.1 µM
- IC50 ([3]; Mus musculus, CT26, light or radiation study, CT26, 540 nm, FWHM 15 nm, 9.00 J/cm^2, read-out: IC50): 3.33 ± 0.44 µM
- IC50 ([3]; Mus musculus, CT26, light or radiation study, CT26, 595 nm, FWHM 10 nm, 3.38 J/cm^2, read-out: IC50): 5.1 ± 1.44 µM
- IC50 ([3]; Mus musculus, CT26, light or radiation study, CT26, 645 nm, FWHM 10 nm, 9.00 J/cm^2, read-out: IC50): 3.93 ± 0.67 µM
- IC50 ([3]; Mus musculus, CT26, light or radiation study, CT26, 670 nm, FWHM 10 nm, 13.50 J/cm^2, read-out: IC50): 1.97 ± 0.42 µM
- IC50 ([3]; Mus musculus, CT26, light or radiation study, CT26, 740 nm, FWHM 10 nm, 12.60 J/cm^2, read-out: IC50): 5.27 ± 0.46 µM
- IC50 ([3]; Mus musculus, CT26, light or radiation study, CT26, 770 nm, FWHM 12.5 nm, 15.30 J/cm^2, read-out: IC50): 25.4 ± 3.72 µM
